For series [1], the system named is Triple negative breast tumor cells (MDAMB231). Briefly: Observation of triple negative breast tumor cells after treatment (FIG. 3/4). The series is classed as cell-based. Particulars: MDAMB231, treated for 24 h. As for the experimental part:
FIG. 3 illustrates the untreated triple negative tumor cells, presented in large numbers.
FIG. 4 illustrates the tumor cells after being treated with the peptide 3-NantC (SEQ ID 1) for 24h. The arrows indicate the tumor cells, which are shown in smaller numbers and with vesicles when compared with the untreated tumor cells.

The test system of series [2] is MDAMB231 cells (triple negative). Briefly: MTT cell viability, tumor cells. The series is classed as cell-based. As for the experimental part: (§1) For the method of MTT, the cells were plated in 96-well sterile plates for cell culture with a cap at the density of 2 × 10^4 cells/well for treatments lasting 24 h and 1 × 10^4 cells/well for treatments lasting 48 h or more, completing the volume to 100 µL with culture medium. The plates were incubated for 8-16 h in an incubator at 37° C. and 5% CO2. The next day, the treatments were prepared in culture medium, applying 200 µL/well at the desired concentration, and the plates were placed in an incubator at 37° C. and 5% CO2for the duration of treatment. After the treatment period, 20 µL/well of a MTT solution was added in PBS (1×) at a concentration of 5 mg/mL, and the dye was incubated at 37° C. and 5% CO2 for 2.5 h. After incubation with MTT, Formazan salts were solubilized with the addition of 200 µL of dimethylsulfoxide solution (DMSO): isopropanol (3:1) and agitated for at least 15 minutes at room temperature. After complete dissolution of the salts, the absorbance was read in a spectrophotometer at 570 nm with endpoint protocol.
(§2) The calculation of cell viability was performed using the formula: […]
(§3) O.D.: optical density captured by spectrophotometer
NOTE: The Basal O.D. is the one found in the blank wells.
In order to determine the efficacy (comparison of doses and times for the MDAMB231 cell line) and safety (comparison between the effects on MDAMB231 and HDFa cells) of the peptide SEQ ID 1 - MFYPDSRCRGPSET (C-terminal region of Crotoxin B), named 3-NAntC, the Analysis of Variance (ANOVA) with Bonferroni post-hoc test was applied to the significance of 5% in GraphPad Prism software version 6.0.

Series [3] deals with benign skin cells - fibroblasts (HDFa). Briefly: MTT cell viability, benign fibroblasts. The series is classed as cell-based. Particulars: HDFa fibroblasts, 24, 48 and 72 h. How it is done:
as §1, §2, §3
NOTE: The Basal O.D. is the one found in the blank wells. […]

Series [4] relates to HDFa benign cell line. In words: BrdU cellular proliferation, benign cells. The series is classed as cell-based. As to conditions: maximum time of exposure. As for the experimental part:
The method of Bomodeoxyuridine (BrdU) quantification was carried out according to the Standard Operational Protocols Nos. 10 and 12 of the Laboratory of Clinical Cytology of the Faculty of Pharmaceutical Sciences of Ribeirao Preto (FCFRP -USP). In this method, for the BrdU quantification, cells were plated in 96-well sterile plates for cell culture with a cap at the density of 2 × 10^4 cells/well for treatments lasting 24 h and 1 × 10^4 cells/well for treatments with 48 h or more, completing the volume to 100 µL with culture medium. The plates were incubated for 8-16 h in an incubator at 37° C. and 5% CO2. The next day, the treatments were prepared in culture medium, applying 200 µL/well at the desired concentration, and the plates were placed in an incubator at 37° C. and 5% CO2 for the duration of treatment. After the treatment period, 20 µL/well of a BrdU-labeling was added and incubated at 37° C. and 5% CO2 for 2.5 h. After incubation with BrdU labeling, the plates were stored at 2-4° C. up to 1 week. […] Substrate was developed for 15 minutes and reaction was stopped with HCl 6 M solution and read in a spectrophotometer at 495 nm with endpoint.
The calculation of cell proliferation was performed using the formula: […]
O.D.: optical density captured by spectrophotometer NOTE: The Basal O.D. is the one found in the blank wells. […]

In series [5] the test system is MDAMB231 cells. Briefly: MTT with or without autophagy inhibitor 3-methyladenine (3-MA). The series is classed as cell-based. As for the experimental part:
The 3-Methyladenine (3-MA) is an autophagy inhibitor (blocks the activation of this mechanism of action). For molecules that trigger autophagy as a cell death mechanism when this pathway is blocked the molecule loses action.
The MTT method was carried out as previously described herein, comparing the effect of 3-NAntC with or without 3-Methyladenine (3-MA).
In order to determine the effects of the peptide in LDH release, autophagy induction and apoptosis/necrosis profile of MDAMB231 cell line, the Analysis of Variance (ANOVA) with Dunnet and Bonferroni post-hoc tests were applied to the significance of 5% in GraphPad Prism software version 6.0.

The subject of series [6] is zebrafish embryos. Briefly: Tolerability in zebrafish embryos. The series is classed as in vivo. Particulars: even at a dose 50,000 times higher than the in vitro MDAMB231 IC50 at 24 h.
The test system of series [7] is MDA-MB-231 cells implanted in zebrafish larvae. In words: Zebrafish xenograft model of MDAMB231 (primary tumor and metastasis). The series is classed as in vivo. How it is done:
Transgenic Tg(fli1:EGFP)y1 zebrafish embryos were raised at 28° C. for 48 hours in E3 embryo medium 0.2 mM 1-Phenyl-2-Thiourea aka PTU. […] MDA-MB-231 cells were labeled with Dil red fluorescent dye. Approximately 700 Dil Labeled cancer cells were subcutaneously co-implanted into the perivitelline space of 2 days old larvae ± 3-NantC peptide at […]. Larvae in which tumor cells had been inadvertently injected into circulation or larvae with erroneous implantation of the tumor in the yolk rather than the perivitelline space were excluded from the study. Selected tumor bearing embryos were sorted into experimental groups (20 embryos/group), and pictures of primary tumors were taken right after injection. Doxorubicin treatment was added to embryo water at 2.5 µg/mL according to the study plan. Tumor-bearing embryos were incubated in E3/PTU medium for 72 h at 36° C. After incubation, pictures of the primary tumors and the CVP were taken using a red fluorescent filter. Larvae that died or were lost by other means during the study were excluded from the final analysis.
Images obtained right after implantation (day 0) and after 72 h incubation (day 3) were analyzed by using in-house developed software. Tumor growth regression was calculated and normalized to the negative control group. The number of metastasized cells was counted manually. One-way ANOVA was performed followed by two-tailed Student’s t-test. Definitive outliers were detected using the ROUT method with a Q=1%. Graphs and example images, and experimental data were obtained/analyzed by using GraphPad Prism v9.0.2.

The subject of series [8] is NFKB, Caspases (Caspase 9). In words: Western blot protein expression. The series is classed as cell-based. As to conditions: compared to the negative control.

These results are taken from patent US20230364204A1, “Bioactive Peptides, Compositions, Production Process, and Use of Bioactive Peptides as Anti-Tumoral Agents” (priority 2022, published 2023).

In the case of `CSCC[C@H](N)C(=O)N[C@@H](Cc1ccccc1)C(=O)N[C@@H](Cc1ccc(O)cc1)C(=O)N1CCC[C@H]1C(=O)N[C@@H](CC(=O)O)C(=O)N[C@@H](CO)C(=O)N[C@@H](CCCNC(=N)N)C(=O)N[C@@H](CS)C(=O)N[C@@H](CCCNC(=N)N)C(=O)NCC(=O)N1CCC[C@H]1C(=O)N[C@@H](CO)C(=O)N[C@@H](CCC(=O)O)C(=O)N[C@H](C(=O)O)[C@@H](C)O` [3-NAntC, [H]-MFYPDSRCRGPSET-[OH]], in series [1], the “number of tumor cells compared to no treatment” value was “lower numbers” and the “number of vesicles compared to no treatment” value is “greater number of vesicles”. In addition, the “compared efficacy in decreasing MDAMB231 cells' viability (MTT, FIG. 13/14)” value in series [2] (MDAMB231, SEQ IDs 2-10 compared to SEQ ID 1) was “highest antitumor effect”. Moreover, the “antitumor effect compared to Cisplatin (MTT)” value in series [2] (MDAMB231, as early as 48 h of treatment) is “exceeds the antitumor effect of Cisplatin”. In addition, the “effect on viability of benign skin cells (MTT)” value in series [3] is reported as “not decreasing the viability”. For the same compound, the “effect on proliferation of benign cells (BrdU)” value in series [4] was “did not alter the proliferation”. The “activity with and without the autophagy inhibitor 3-MA (MTT)” value in series [5] is listed as “remains the same”. Besides, in series [6], the embryo survival result is reported as “high embryo survival” and the “tolerability in zebrafish embryos” value is “well tolerated”. For the same compound, in series [7] (75 and 125 mg/mL), the “decrease of metastatic cells” value is “about 60%”. In addition, the “decrease of tumor cells (primary tumor)” value in series [7] (72 h, 3-NantC co-implanted at 75, 100 or 125 mg/mL, Doxorubicin 2.5 µg/mL in embryo water) was 75%. Besides, the “decrease in metastatic cells” value in series [7] (very low concentrations (FIG. 17)) was “about 40%”. Besides, in series [8], the “activation of Caspases, namely Caspase 9” value is recorded as “greater activation” and the “activation of pro-survival signals such as NFKB” value was “may inhibit the activation”.
